Read-outs that look alike come from different tables or passages of the source. Starred links: 1 amine or outer side, 2 acyl side, 3 side chain; linkers in the order of their positions; H or OH if unused. Non-standard residues stand in square brackets, D forms with d. Residues, ends and D or L forms follow the SMILES beside them. *: point of attachment. X3 = O=C(N[C@H]1C[C@@H](C(=O)[*:2])N([*:1])C1)c1ccccc1; Arg(Nω,Nω'-propylene) = N[C@@H](CCCNC1=NCCCN1)C(=O)O; dPro(cis-4-NH2) = N[C@H]1CN[C@@H](C(=O)O)C1; X4 = Cn1ccnc1CNCCC[C@H](N[*:1])C(=O)[*:2]; dPro(4S-NH2) = N[C@@H]1CN[C@@H](C(=O)O)C1; Pro(4R-NH2) = N[C@H]1CN[C@H](C(=O)O)C1; dPro(3S-OH) = O=C(O)[C@@H]1NCC[C@@H]1O; Pro(3S-OH) = O=C(O)[C@H]1NCC[C@@H]1O; Tiq1c(1S) = O=C(O)[C@H]1NCCc2ccccc21; cisHyp = O=C(O)[C@@H]1C[C@H](O)CN1; Pyrazinecarbonyl = O=C(c1cnccn1)*; dCit = NC(=O)NCCC[C@@H](N)C(=O)O; hArg = N=C(N)NCCCC[C@H](N)C(=O)O; Tic = O=C(O)[C@@H]1Cc2ccccc2CN1; dHyp = O=C(O)[C@H]1C[C@H](O)CN1; Agp = N=C(N)NC[C@H](N)C(=O)O; dOrn = NCCC[C@@H](N)C(=O)O; dDab = NCC[C@@H](N)C(=O)O; hSer = N[C@@H](CCO)C(=O)O; Orn = NCCC[C@H](N)C(=O)O; Bn = c1ccc(C*)cc1
Target: T1, CXCR7 (Homo sapiens, UniProt P25106)
T1 construct: host or cells: CHO (PathHunter CHO-CXCR7 β-arrestin cells)
T1 sequence (P25106 whole entry): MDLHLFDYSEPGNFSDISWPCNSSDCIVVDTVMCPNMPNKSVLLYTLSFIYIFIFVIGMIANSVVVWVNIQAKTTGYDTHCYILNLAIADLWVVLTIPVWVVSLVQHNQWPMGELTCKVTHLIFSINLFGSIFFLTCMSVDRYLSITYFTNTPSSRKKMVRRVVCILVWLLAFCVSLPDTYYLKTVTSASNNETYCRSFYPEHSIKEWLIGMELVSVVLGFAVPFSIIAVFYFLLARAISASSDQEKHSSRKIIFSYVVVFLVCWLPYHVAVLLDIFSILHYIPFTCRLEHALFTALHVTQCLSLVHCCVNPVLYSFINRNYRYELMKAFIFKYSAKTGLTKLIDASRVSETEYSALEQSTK
Assay: CXCR7 β-arrestin recruitment assay (PathHunter CHO-CXCR7, DiscoverX), agonistic assay
Format: cell-based
Protocol: Lyophilized peptides were weighed on a Microbalance (Mettler MX5) and dissolved in DMSO to a final concentration of 10 mM unless otherwise stated. Stock solutions were kept at +4° C., and protected from light.
2.2 CXCR7 β-Arrestin Recruitment Assay
The PathHunter CHO-CXCR7 (DiscoverX) assay was performed according to the manufacturer's protocol. In brief, CHO CXCR7 β-arrestin cells were seeded at a density of 5000 cells per well in 40 μl of F12 medium in black 96-half volume well culture plates and incubated overnight at 37° C. in a humidified atmosphere with 5% CO2. The next day, serial dilutions of PEM compounds have been prepared in DMSO and subsequently diluted in HBSS buffer containing 0.1% BSA.
For agonistic assay, 10 μl of compound solution or a solution of stromal cell-derived factor-1 (SDF-1) as positive control was added to the cells with a final DMSO concentration of 1% (v/v). The plate was incubated for 90 min at 37° C. in 5% CO2 incubator with gentle shaking (300 rpm) before addition of 40 μl of detection reagent per well. Reaction was developed for 90 min at room temperature in the dark with shaking, and chemiluminescence was measured with a Topcount (Perkin Elmer) luminescence counter.

[1] = agonistic assay, CHO CXCR7 β-arrestin cells, 90 min at 37° C., chemiluminescence, read-out: β-Arrestin EC50

Structure (SMILES) | EC50 [1] | EC50
CC(C)C[C@@H]1NC(=O)[C@H]([C@@H](C)O)NC(=O)[C@H]2CCCN2C(=O)[C@H](Cc2c[nH]c3ccccc23)NC(=O)[C@H](CCCNC(=N)N)NC(=O)[C@@H](CCCNC(=N)N)NC1=O [compound 60, cyclo(-Leu-^DArg-Arg-Trp-^DPro-Thr-)] (cyclo(L[dR]RW[dP]T)) | 5.3 ± 3.6 nM | 
CC[C@H](C)[C@@H]1NC(=O)[C@H]([C@@H](C)O)NC(=O)[C@H]2[C@@H](O)CCN2C(=O)[C@H](Cc2c[nH]c3ccccc23)NC(=O)[C@H](CCCNC(=N)N)NC(=O)[C@@H](CCCNC(=N)N)NC1=O [Ex. 55, cyclo(-Ile-^DArg-Arg-Trp-^DPro((4S)OH)-Thr-)] (cyclo(I[dR]RW[dPro(3S-OH)]T)) | 632 ± 23.3 nM | 
CC[C@H](C)[C@@H]1NC(=O)[C@H](CCO)NC(=O)[C@H]2CCCN2C(=O)[C@H](Cc2c[nH]c3ccccc23)NC(=O)[C@H](CCCNC(=N)N)NC(=O)[C@@H](CCCNC(=N)N)NC1=O [Ex. 8, cyclo(-Ile-^DArg-Arg-Trp-^DPro-hSer-)] (cyclo(I[dR]RW[dP][hSer])) | 347 ± 10.3 nM | 
N=C(N)NCCC[C@@H]1NC(=O)[C@H](Cc2c[nH]c3ccccc23)NC(=O)[C@@H](Cc2ccccc2)NC(=O)[C@H](Cc2c[nH]c3ccccc23)NC(=O)[C@@H]2C[C@@H](N)CN2C(=O)[C@H]2CCCN2C1=O [compound 45, cyclo(-Trp-^DPhe-Trp-Arg-^DPro-Pro((4R)NH2)—)] (cyclo(R[dP][Pro(4R-NH2)]W[dF]W)) | 26.9 ± 12.6 nM | 
C[C@@H](O)[C@@H]1NC(=O)[C@H]2CCCN2C(=O)[C@H](Cc2c[nH]c3ccccc23)NC(=O)[C@H](CCCNC(=N)N)NC(=O)[C@@H](CCCNC(=N)N)NC(=O)[C@H](Cc2c[nH]c3ccccc23)NC1=O [Ex. 20, cyclo(-Trp-^DArg-Arg-Trp-^DPro-Thr-)] (cyclo(RW[dP]TW[dR])) | 538 ± 105 nM | 
O=C(N[C@H]1C[C@H]2C(=O)N[C@@H](Cc3c[nH]cn3)C(=O)N[C@H](Cc3c[nH]c4ccccc34)C(=O)N[C@@H](Cc3c[nH]cn3)C(=O)N[C@@H](Cc3c[nH]c4ccccc34)C(=O)N3CCC[C@@H]3C(=O)N2C1)c1ccccc1 [Ex. 51, cyclo(-His-^DTrp-His-Trp-^DPro-Pro((4S)NHBz)-)] (cyclo(HW[dP][X3]H[dW])) |  | 413 ± 225 nM
N[C@@H]1C[C@@H]2C(=O)N3Cc4ccccc4C[C@H]3C(=O)N[C@@H](Cc3c[nH]c4ccccc34)C(=O)N[C@H](Cc3ccccc3)C(=O)N[C@@H](Cc3c[nH]c4ccccc34)C(=O)N[C@@H](Cc3c[nH]cn3)C(=O)N2C1 [compound 32, cyclo(-Trp-^DPhe-Trp-His-^DPro((4R)NH2)-Tic-)] (cyclo(H[dPro(cis-4-NH2)][Tic]W[dF]W)) | 20.4 ± 6.6 nM | 
CC[C@H](C)[C@@H]1NC(=O)[C@H]([C@@H](C)O)NC(=O)[C@H]2CCCN2C(=O)[C@H](Cc2c[nH]c3ccccc23)NC(=O)[C@H](CNC(=N)N)NC(=O)[C@@H](CCCNC(=N)N)NC1=O [Ex. 23, cyclo(-Ile-^DArg-Agp-Trp-^DPro-Thr-)] (cyclo([Agp]W[dP]TI[dR])) | 90.5 ± 60.7 nM | 
CC[C@H](C)[C@@H]1NC(=O)[C@H]([C@@H](C)O)NC(=O)[C@H]2CCCN2C(=O)[C@H](Cc2c[nH]c3ccccc23)NC(=O)[C@H](CCCNC(=O)c2cnccn2)NC(=O)[C@@H](CCCNC(=N)N)NC1=O [compound 64, cyclo(-Ile-^DArg-Orn(A41)-Trp-^DPro-Thr-)] (cyclo(I[dR][Orn](Pyrazinecarbonyl)W[dP]T)) | 518 ± 20.9 nM | 
N=C(N)NCCCC[C@@H]1NC(=O)[C@H](Cc2c[nH]c3ccccc23)NC(=O)[C@@H](Cc2ccccc2)NC(=O)[C@H](CCCNC(=N)N)NC(=O)[C@@H]2Cc3ccccc3CN2C(=O)[C@H]2C[C@@H](N)CN2C1=O [compound 39, cyclo(-Arg-^DPhe-Trp-hArg-^DPro((4R)N H2)-Tic-)] (cyclo(R[dF]W[hArg][dPro(cis-4-NH2)][Tic])) | 352 ± 79.3 nM | 
CC[C@H](C)[C@@H]1NC(=O)[C@H]([C@@H](C)O)NC(=O)[C@H]2CCCN2C(=O)[C@H](Cc2c[nH]c3ccccc23)NC(=O)[C@H](CCCNCc2nccn2C)NC(=O)[C@@H](CCCNC(=N)N)NC1=O [Ex. 69, cyclo(-Ile-^DArg-Orn(Ar7)-Trp-^DPro-Thr-)] (cyclo(I[dR][X4]W[dP]T)) | 337 ± 92.6 nM | 
CC[C@H](C)[C@@H]1NC(=O)[C@@H]2[C@@H](O)CCN2C(=O)[C@H]2CCCN2C(=O)[C@H](Cc2c[nH]c3ccccc23)NC(=O)[C@H](CCCNC(=N)N)NC(=O)[C@@H](CCCNC(=N)N)NC1=O [Ex. 21, cyclo(-Ile-^DArg-Arg-Trp-^DPro-Pro((3S)OH)—)] (cyclo(I[dR]RW[dP][Pro(3S-OH)])) | 123 ± 85.2 nM | 
N=C(N)NCCC[C@@H]1NC(=O)[C@H](Cc2c[nH]c3ccccc23)NC(=O)[C@@H](Cc2ccccc2)NC(=O)[C@H](Cc2c[nH]c3ccccc23)NC(=O)[C@@H]2C[C@H](OCc3ccccc3)CN2C(=O)[C@H]2C[C@H](O)CN2C1=O [compound 49, cyclo(-Trp-^DPhe-Trp-Arg-^DPro((4S)OH)-(4S)-Hyp(Bn)-)] (cyclo(R[dHyp][cisHyp](Bn)W[dF]W)) | 7.6 ± 10.1 nM | 

Continued by falling EC50 [1], values first:

EC50 [1] | Structure (SMILES) | EC50
473 ± 68.9 nM | CC[C@H](C)[C@@H]1NC(=O)[C@H]([C@@H](C)O)NC(=O)[C@H]2CCCN2C(=O)[C@H](Cc2c[nH]c3ccccc23)NC(=O)[C@H](CCCNC(=N)N)NC(=O)[C@@H](CCCNC(N)=O)NC1=O [compound 13, cyclo(-Ile-^DCit-Arg-Trp-^DPro-Thr-)] (cyclo(I[dCit]RW[dP]T)) | 
79.7 ± 99.7 nM | CC[C@H](C)[C@@H]1NC(=O)[C@H]([C@@H](C)O)NC(=O)[C@H]2CCCN2C(=O)[C@H]([C@@H](C)CC)NC(=O)[C@H](CCCNC(=N)N)NC(=O)[C@@H](CCCNC(=N)N)NC1=O [Ex. 1, cyclo(-Ile-^DArg-Arg-Ile-^DPro-Thr-)] (cyclo(I[dP]TI[dR]R)) | 
62.5 ± 1.8 nM | CC[C@H](C)[C@@H]1NC(=O)[C@H]([C@@H](C)O)NC(=O)[C@H]2CCCN2C(=O)[C@H](CCCNC(=N)N)NC(=O)[C@H](Cc2c[nH]c3ccccc23)NC(=O)[C@@H](CCCNC(=N)N)NC1=O [Ex. 17, cyclo(-Ile-^DArg-Trp-Arg-^DPro-Thr-)] (cyclo(I[dR]WR[dP]T)) | 
53.2 ± 35.8 nM | CC[C@H](C)[C@@H]1NC(=O)[C@H]([C@@H](C)O)NC(=O)[C@H]2CCCN2C(=O)[C@H](Cc2c[nH]c3ccccc23)NC(=O)[C@H](CCCNC(=N)N)NC(=O)[C@@H]([C@H](C)O)NC1=O [Ex. 7, cyclo(-Ile-^DThr-Arg-Trp-^DPro-Thr-)] (cyclo(I[dT]RW[dP]T)) | 
48.4 ± 67.5 nM | CC[C@H](C)[C@@H]1NC(=O)[C@H]([C@@H](C)O)NC(=O)[C@H]2CCCN2C(=O)[C@H](Cc2c[nH]c3ccccc23)NC(=O)[C@H](CCCNC(=N)N)NC(=O)[C@@H](CCN)NC1=O [Ex. 5, cyclo(-Ile-^DDab-Arg-Trp-^DPro-Thr-)] (cyclo(I[dDab]RW[dP]T)) | 
46.9 ± 12.5 nM | N[C@@H]1C[C@@H]2C(=O)N3CCc4ccccc4[C@H]3C(=O)N[C@@H](Cc3c[nH]c4ccccc34)C(=O)N[C@H](Cc3ccccc3)C(=O)N[C@@H](Cc3c[nH]c4ccccc34)C(=O)N[C@@H](CCCNC3=NCCCN3)C(=O)N2C1 [compound 79, cyclo(-Trp-^DPhe-Trp-Orn(A56)-^DPro((4R)NH2)-Tiq-)] (cyclo(W[dF]W[Arg(Nω,Nω'-propylene)][dPro(cis-4-NH2)][Tiq1c(1S)])) | 
26.1 ± 16.7 nM | NCCC[C@@H]1NC(=O)[C@H](Cc2c[nH]c3ccccc23)NC(=O)[C@@H](Cc2ccccc2)NC(=O)[C@H](Cc2c[nH]c3ccccc23)NC(=O)[C@@H]2Cc3ccccc3CN2C(=O)[C@H]2C[C@@H](N)CN2C1=O [Ex. 29, cyclo(-Trp-^DPhe-Trp-Orn-^DPro((4R)NH2)-Tic-)] (cyclo([Orn][dPro(cis-4-NH2)][Tic]W[dF]W)) | 
23.3 ± 7.3 nM | CC[C@H](C)[C@@H]1NC(=O)[C@H]([C@@H](C)O)NC(=O)[C@H]2CCCN2C(=O)[C@H](Cc2c[nH]c3ccccc23)NC(=O)[C@H](CCCNC(=N)N)NC(=O)[C@@H](CCCN)NC1=O [compound 63, cyclo(-Ile-^DOrn-Arg-Trp-^DPro-Thr-)] (cyclo(I[dOrn]RW[dP]T)) | 
13.1 ± 4.4 nM | N=C(N)NCCC[C@@H]1NC(=O)[C@@H]2Cc3ccccc3CN2C(=O)[C@H]2C[C@H](N)CN2C(=O)[C@H](CCCNC(=N)N)NC(=O)[C@H](Cc2c[nH]c3ccccc23)NC(=O)[C@@H](Cc2ccccc2)NC1=O [compound 40, cyclo(-Arg-^DPhe-Trp-Arg-^DPro((4S)NH2)-Tic-)] (cyclo(R[dF]WR[dPro(4S-NH2)][Tic])) | 
12.2 ± 5.4 nM | N=C(N)NCCCC[C@@H]1NC(=O)[C@@H]2Cc3ccccc3CN2C(=O)[C@H]2C[C@@H](N)CN2C(=O)[C@H](CCCNC(=N)N)NC(=O)[C@H](Cc2c[nH]c3ccccc23)NC(=O)[C@@H](Cc2ccccc2)NC1=O [compound 35, cyclo(-hArg-^DPhe-Trp-Arg-^DPro((4R)NH2)-Tic-)] (cyclo(R[dPro(cis-4-NH2)][Tic][hArg][dF]W)) | 
11 ± 4.5 nM | CC[C@H](C)[C@@H]1NC(=O)[C@H]([C@@H](C)O)NC(=O)[C@H]2CCCN2C(=O)[C@H](Cc2c[nH]c3ccccc23)NC(=O)[C@H](CCCCNC(=N)N)NC(=O)[C@@H](CCCNC(=N)N)NC1=O [compound 66, cyclo(-Ile-^DArg-hArg-Trp-^DPro-Thr-)] (cyclo(I[dR][hArg]W[dP]T)) | 
6.7 ± 5.1 nM | CC[C@H](C)[C@@H]1NC(=O)[C@H]([C@@H](C)O)NC(=O)[C@H]2CCCN2C(=O)[C@H](Cc2c[nH]c3ccccc23)NC(=O)[C@H](CCCNC(=N)N)NC(=O)[C@@H](CCCNC(=N)N)NC1=O [compound 18, cyclo(-Ile-^DArg-Arg-Trp-^DPro-Thr-)] (cyclo(I[dR]RW[dP]T)) | 

— patent publication US9637520B2, “Template-fixed peptidomimetics with CXCR7 modulating activity” (POLYPHOR AG, priority 2010, dated 2017)
